From PMC8163982, “Partial agonism improves the anti-hyperglycaemic efficacy of an oxyntomodulin-derived GLP-1R/GCGR co-agonist” (Molecular Metabolism, 2021)
Where a SMILES comes first, the peptide text is derived from it. [ ]: non-standard residue; d: D form. Aib = CC(C)(N)C(=O)O

Columns and labels:
[1] = test system: primary mouse hepatocytes; experiment: cAMP accumulation in primary mouse hepatocytes; type: cell-based; conditions: expressed relative to 10 μM forskolin response, mean ± SEM, n = 4; for cAMP 10 min (primary hepatocytes) Emax: 100 μM IBMX; for cAMP 16 h (primary hepatocytes) Emax: 100 μM IBMX for final 10 min
Procedure: Hepatocytes from adult male C57Bl/6J mice were isolated using collagenase perfusion. After filtering and washing, the cells were used to directly assay cAMP responses as described in the next section.
(§1) PathHunter cells were stimulated with the indicated concentration of agonist for 30 min at 37 °C in serum-free medium without phosphodiesterase inhibitors. INS-1 832/3 cells were stimulated with the indicated concentration of agonist for 10 min at 37 °C in serum-free medium with 100 μM of 3-isobutyl-1-methylxanthine (IBMX). Primary dispersed mouse islet cells prepared by triturating intact islets in 0.05% trypsin/EDTA for 3 min at 37 °C were stimulated with the indicated concentration of agonist for 5 min at 37 °C in serum-free medium with 11 mM of glucose and 500 μM of IBMX. Primary mouse hepatocytes were stimulated in serum-free medium with 100 μM of IBMX for 10 min or 16 h in serum-free medium with 100 μM of IBMX added for the final 10 min of incubation. Huh7-GCGR cells were stimulated in serum-free medium without phosphodiesterase inhibitors for 10 min or for 16 h in serum-free medium. Where relevant, forskolin (10 μM) was added as a positive or normalisation control. At the end of each incubation, cAMP was then assayed by HTRF (Cisbio cAMP Dynamic 2) and concentration-response curves were constructed with 3-parameter curve fitting using Prism 8.0.

[2] = molecular target: T1, recombinant DPP-4 (Homo sapiens, UniProt P27487); experiment: DPP-4 peptide degradation assay; type: in vitro ADME; conditions: 10 nmol peptide in 750 μl 100 mM Tris–HCl pH 8, 10 mU recombinant DPP-4, 37 °C, 1 or 24 h, intact peptide by RP-HPLC (C18), UV 214 nm, vs no-enzyme control, n = 3
T1 construct: purchased R&D Systems
Procedure: Then, 10 mU of recombinant DPP-4 (R&D Systems) or no enzyme as a control for non-enzymatic degradation over the same time period was added to the reconstituted peptide. Reactions were incubated at 37 °C and 120 μl samples were collected from the reaction vessel at the indicated time points. Then, 5 μl of 10% trifluoroacetic acid (TFA) was added to each sample to terminate enzyme activity. The samples were analysed by reverse-phase high-performance liquid chromatography (HPLC) with a linear acetonitrile/water gradient acidified with 0.1% TFA on Phenomenex Aeris Peptide 3.6 μm XB-C18 columns (150 × 4.6 mm). The eluted peptides were detected at 214 nm. Peptide degradation was calculated by comparing the area under the peak of the original compound with and without enzyme.

[3] = molecular target: T2, GLP-1R (Homo sapiens, UniProt P43220); experiment: cAMP production (HTRF) in PathHunter CHO-K1 cells expressing GLP-1R; type: cell-based; set-up: host or cells: PathHunter CHO-K1-βarr2-EA; conditions: 30 min, mean ± SEM, n = 6; for EC50: 37 °C, serum-free medium, no phosphodiesterase inhibitors, read-out: GLP-1R cAMP (CHO–K1) pEC50 (converted); for Emax: CHO-K1, normalised to globally fitted maximum response
Procedure: HEK293T cells were maintained in DMEM supplemented with 10% FBS and 1% penicillin/streptomycin. PathHunter CHO–K1-βarr2-EA cells stably expressing human GLP-1R, GCGR, or GIPR and PathHunter CHO–K1-βarr1-EA cells stably expressing GCGR were obtained from DiscoverX and maintained in Ham's F12 medium with 10% FBS and 1% penicillin/streptomycin. Stable HEK293-SNAP-GLP-1R cells were maintained in DMEM supplemented with 10% FBS, 1% penicillin/streptomycin, and 1 mg/ml of G418. INS-1 832/3 cells, a gift from Professor Chris Newgard (Duke University), were maintained in RPMI with 11 mM of glucose supplemented with 10% FBS, 10 mM of HEPES, 1 mM of pyruvate, 50 μM of β-mercaptoethanol, and 1% penicillin/streptomycin. Huh7 cells stably expressing human GCGR (Huh7-GCGR) were maintained in DMEM supplemented with 10% FBS, 1 mg/ml of G418, and 1% penicillin/streptomycin.
as §1

[4] = Pharmacokinetic study in rats (SC with ZnCl2, plasma radioimmunoassay); type: in vivo, rat; conditions: 4 mg/kg SC with zinc, up to 72 h
Procedure: The mice were administered 0.5 mg/kg of peptide via IP injection. Four h after injection, blood was acquired by venesection into lithium heparin-coated microvette tubes (Sarstedt, Germany). In a separate study, male Sprague Dawley rats (average weight 250 g, obtained from Charles River) were administered 4 mg/kg of peptide SC mixed in aqueous ZnCl2 solution to a molar ratio of 0.7:1 (peptide:ZnCl2), and blood was collected by venesection at several time points up to 72 h. Plasma was separated by centrifugation at 10,000 g for 8 min at 4 °C. Plasma concentrations were assessed by radioimmunoassay using an in-house assay as previously described using standard curves generated from each SRB103 peptide to ensure that equivalent recovery was obtained.

[5] = molecular target: GCGR (Homo sapiens, UniProt P47871); experiment: NanoBiT mini-Gs recruitment to GCGR-SmBiT in HEK293T cells; type: cell-based; set-up: expressed in transfected cells; host or cells: HEK293T; conditions: SRB103 pair, mean ± SEM, n = 6; for Emax: HEK-293T, normalised to full agonist response, read-out: GCGR mini-Gs (HEK293T) Emax; for EC50: 3-parameter fit, read-out: GCGR mini-Gs (HEK293T) pEC50 (converted)
[6] = molecular target: T2, GLP-1R; experiment: NanoBiT β-arrestin-2 recruitment to GLP-1R-SmBiT in HEK293T cells; type: cell-based; conditions: SRB103 pair, mean ± SEM, n = 6; for Emax: HEK-293T, normalised to full agonist response, read-out: GLP-1R βarr2 (HEK293T) Emax; for EC50: 3-parameter fit, read-out: GLP-1R βarr2 (HEK293T) pEC50 (converted)
Procedure: The assay was performed as previously described. […] (gifts from Professor Nevin Lambert, Medical College of Georgia) or 0.05 μg of GLP-1R-SmBiT and 0.05 μg of LgBiT-β-arrestin-2 (Promega) plus 0.9 μg of pcDNA3.1 for 24 h. The cells were detached with EDTA, resuspended in HBSS, and furimazine (Promega) was added at a 1:50 dilution from the manufacturer's pre-prepared stock. After dispensing into 96-well white plates, a baseline read of the luminescent signals was serially recorded for 5 min using a FlexStation 3 instrument at 37 °C before the indicated concentration of ligand was added, after which the signals were repeatedly recorded for 30 min. […] Bias was calculated using two approaches. First, the log max/EC50 method was used, with the ratio of Emax to EC50 from 3-parameter fits for each ligand used to quantify agonism. After log10 transformation, responses were expressed relative to the reference agonist on a per assay basis to obtain Δlog(Emax/EC50) for each pathway. Pathway-specific values were then expressed relative to each other to obtain ΔΔlog(Emax/EC50), that is, the log bias factor. Second, a method derived from kinetic curve fitting was used. Here, kinetic responses for a single maximal agonist concentration were normalised at each time point to the vehicle response prior to curve fitting. Mini-Gs responses were fitted using the one-phase exponential association equation in Prism 8.0. β-arrestin-2 responses were fitted using the biexponential equation described in [29]. […] Pathway-specific values were then expressed relative to each other to obtain ΔΔlog kτ , that is, the log bias factor.

Sequence of GCGR (P47871 26-477): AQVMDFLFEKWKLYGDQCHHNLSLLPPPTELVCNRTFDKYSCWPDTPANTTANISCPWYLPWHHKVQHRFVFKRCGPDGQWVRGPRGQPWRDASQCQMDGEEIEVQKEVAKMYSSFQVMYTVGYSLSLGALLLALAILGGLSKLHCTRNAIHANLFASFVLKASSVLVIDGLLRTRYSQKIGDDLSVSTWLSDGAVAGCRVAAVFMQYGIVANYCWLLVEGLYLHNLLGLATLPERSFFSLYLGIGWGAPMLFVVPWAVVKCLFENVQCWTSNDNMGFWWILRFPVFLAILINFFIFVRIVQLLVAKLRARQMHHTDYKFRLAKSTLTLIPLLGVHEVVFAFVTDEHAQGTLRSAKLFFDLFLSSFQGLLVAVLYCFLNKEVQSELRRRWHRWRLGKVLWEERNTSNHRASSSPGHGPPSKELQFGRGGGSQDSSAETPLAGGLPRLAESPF
T2 sequence (P43220 24-463): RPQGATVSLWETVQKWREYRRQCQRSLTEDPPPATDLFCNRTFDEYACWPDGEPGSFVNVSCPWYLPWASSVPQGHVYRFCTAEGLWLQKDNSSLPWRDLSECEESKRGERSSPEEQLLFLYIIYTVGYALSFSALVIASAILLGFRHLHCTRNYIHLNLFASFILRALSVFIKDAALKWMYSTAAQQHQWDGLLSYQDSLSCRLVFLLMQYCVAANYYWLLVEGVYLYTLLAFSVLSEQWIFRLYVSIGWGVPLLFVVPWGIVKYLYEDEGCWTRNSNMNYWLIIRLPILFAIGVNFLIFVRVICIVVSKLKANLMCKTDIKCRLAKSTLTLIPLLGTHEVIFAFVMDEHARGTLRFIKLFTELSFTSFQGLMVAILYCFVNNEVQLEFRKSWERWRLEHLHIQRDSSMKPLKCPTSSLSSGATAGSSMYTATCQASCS
T1 sequence (P27487 whole entry, species assumed): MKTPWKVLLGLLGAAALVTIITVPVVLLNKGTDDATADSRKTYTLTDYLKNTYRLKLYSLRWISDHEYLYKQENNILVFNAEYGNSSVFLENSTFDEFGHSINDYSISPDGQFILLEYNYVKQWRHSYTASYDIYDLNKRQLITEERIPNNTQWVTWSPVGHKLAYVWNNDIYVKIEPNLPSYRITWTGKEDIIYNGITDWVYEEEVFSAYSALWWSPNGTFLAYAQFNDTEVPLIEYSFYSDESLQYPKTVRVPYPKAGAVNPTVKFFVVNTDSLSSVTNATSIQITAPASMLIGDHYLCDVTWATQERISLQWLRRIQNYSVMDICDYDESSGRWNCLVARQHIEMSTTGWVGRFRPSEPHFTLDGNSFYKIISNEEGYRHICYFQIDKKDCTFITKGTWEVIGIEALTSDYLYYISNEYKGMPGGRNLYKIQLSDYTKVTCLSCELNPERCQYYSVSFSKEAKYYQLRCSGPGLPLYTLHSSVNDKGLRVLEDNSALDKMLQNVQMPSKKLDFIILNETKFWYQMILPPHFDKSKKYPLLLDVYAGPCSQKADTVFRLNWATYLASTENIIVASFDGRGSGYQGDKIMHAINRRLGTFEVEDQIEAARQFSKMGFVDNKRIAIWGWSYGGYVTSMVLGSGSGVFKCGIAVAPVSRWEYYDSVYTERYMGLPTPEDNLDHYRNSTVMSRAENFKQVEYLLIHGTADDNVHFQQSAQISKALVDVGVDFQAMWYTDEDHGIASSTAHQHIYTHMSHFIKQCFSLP

SMILES | cAMP 10 min (primary hepatocytes) Emax [1] | cAMP 16 h (primary hepatocytes) Emax [1] | Resistance to DPP-4-mediated degradation [2] | EC50 [3] [nM] | Emax [3] [%] | Pharmacokinetics by serial plasma sampling [4] | Emax [5] [%] | EC50 [5] [nM] | Emax [6] [%] | EC50 [6] [nM]
CC[C@H](C)[C@H](NC(=O)[C@H](Cc1ccccc1)NC(=O)[C@H](CCC(=O)O)NC(=O)[C@H](CCC(N)=O)NC(=O)[C@H](C)NC(=O)[C@H](CCCNC(=N)N)NC(=O)[C@H](CCCCN)NC(=O)[C@H](C)NC(=O)[C@H](CC(=O)O)NC(=O)[C@H](CC(C)C)NC(=O)[C@H](Cc1ccc(O)cc1)NC(=O)[C@H](CCCCN)NC(=O)[C@H](CO)NC(=O)[C@H](Cc1ccc(O)cc1)NC(=O)[C@H](CC(=O)O)NC(=O)[C@H](CO)NC(=O)[C@@H](NC(=O)[C@H](Cc1ccccc1)NC(=O)[C@@H](NC(=O)CNC(=O)[C@H](Cc1c[nH]cn1)NC(=O)C(C)(C)NC(=O)[C@@H](N)Cc1c[nH]cn1)[C@@H](C)O)[C@@H](C)O)C(=O)N[C@@H](CCC(=O)O)C(=O)N[C@@H](Cc1c[nH]c2ccccc12)C(=O)N[C@@H](CC(C)C)C(=O)N[C@@H](CC(C)C)C(=O)N[C@@H](C)C(=O)NCC(=O)N[C@@H](Cc1c[nH]cn1)C(=O)N[C@@H](Cc1c[nH]cn1)C(=O)N[C@@H](Cc1c[nH]cn1)C(=O)N[C@@H](Cc1c[nH]cn1)C(=O)N[C@@H](Cc1c[nH]cn1)C(=O)N1CCC[C@H]1C(=O)N[C@@H](CO)C(=O)N[C@@H](Cc1c[nH]c2ccccc12)C(=O)O [SRB103H] (H-H[Aib]HGTFTSDYSKYLDAKRAQEFIEWLLAGHHHHHPSW-OH) | 170 ± 7 | 206 ± 7 | highly resistant to DPP-4-mediated degradation | 0.316 | 99 ± 4 | no obvious difference in pharmacokinetics | 100 | 7.94 | 100 | 398
CC[C@H](C)[C@H](NC(=O)[C@H](Cc1ccccc1)NC(=O)[C@H](CCC(=O)O)NC(=O)[C@H](CCC(N)=O)NC(=O)[C@H](C)NC(=O)[C@H](CCCNC(=N)N)NC(=O)[C@H](CCCCN)NC(=O)[C@H](C)NC(=O)[C@H](CC(=O)O)NC(=O)[C@H](CC(C)C)NC(=O)[C@H](Cc1ccc(O)cc1)NC(=O)[C@H](CCCCN)NC(=O)[C@H](CO)NC(=O)[C@H](Cc1ccc(O)cc1)NC(=O)[C@H](CC(=O)O)NC(=O)[C@H](CO)NC(=O)[C@@H](NC(=O)[C@H](Cc1ccccc1)NC(=O)[C@@H](NC(=O)CNC(=O)[C@H](CCC(N)=O)NC(=O)C(C)(C)NC(=O)[C@@H](N)Cc1c[nH]cn1)[C@@H](C)O)[C@@H](C)O)C(=O)N[C@@H](CCC(=O)O)C(=O)N[C@@H](Cc1c[nH]c2ccccc12)C(=O)N[C@@H](CC(C)C)C(=O)N[C@@H](CC(C)C)C(=O)N[C@@H](C)C(=O)NCC(=O)N[C@@H](Cc1c[nH]cn1)C(=O)N[C@@H](Cc1c[nH]cn1)C(=O)N[C@@H](Cc1c[nH]cn1)C(=O)N[C@@H](Cc1c[nH]cn1)C(=O)N[C@@H](Cc1c[nH]cn1)C(=O)N1CCC[C@H]1C(=O)N[C@@H](CO)C(=O)N[C@@H](Cc1c[nH]c2ccccc12)C(=O)O [SRB103Q] (H-H[Aib]QGTFTSDYSKYLDAKRAQEFIEWLLAGHHHHHPSW-OH) | 175 ± 12 | 200 ± 6 | highly resistant to DPP-4-mediated degradation | 0.316 | 103 ± 2 | no obvious difference in pharmacokinetics | 83 ± 1 | 20 | 60 ± 2 | 200
